Reference: patent publication US12447198B2, “Peptides and fragments for treating diabetes and associated metabolic diseases” (Betavive Ltd., priority 2021, dated 2025)

What was measured:
[1] = Blood level of total and free IGF-2 after 40 μg intraperitoneal injection (ELISA); assay type: in vivo, mouse; conditions: 240 minute time frame
Source text: Without being bound by this theory, it is believed that IGF-2 binding proteins may initially inactivate the biological activity of free IGF-2. And over time, the bond between IGF-2 and the binding protein may be released, increasing the bioavailability of IGF-2 and leading to a longer term effective treatment.

NOD mice = assay: Serum insulin / insulin secretion in NOD mice treated with IGF-2; assay type: in vivo, mouse
Protocol: FIG. 30B depicts the levels of serum insulin in NOD mice measured two weeks after a 66 day course of treatment using IGF-2. Mice that were treated with 3000 μg/kg/day of IGF-2 had serum insulin levels that were about 4-fold higher than the control mice.
In one exemplary experiment, NOD mice were treated with a 3000 μg/kg daily doses of IGF-2 for 150 days. ⅘ of the treated mice maintained normoglycemia compared to ¼ of the control mice. In another exemplary experiment, NOD mice were treated with a 3000 μg/kg daily dose of IGF-2 for 75 days with follow-up glucose measurements taken for an additional 90 days (during which IGF-2 was not administered). ⅝ of the treated mice maintained normoglycemia compared to 2/11 of the control mice.

STZ-treated mouse islets = assay: Insulin secretion from STZ-treated mouse islets; assay type: cell-based; conditions: islets treated with 2.5 mM STZ; 48 hours after treatment; IGF-2 50 nM and 500 nM, GLP-1 100 nM and 1000 nM
Protocol: Mouse islet cells were treated with 2.5 mM STZ and subsequently treated with either IGF-2 (FA) at 50 nM and 500 nM, or with GLP-1 at 100 nM and 1000 nM.

insulin-like growth factor 2 [IGF-2]
peak free IGF-2 in the blood [1]: 1 µg
peak total concentration of IGF-2 total in the blood [1]: about 16 μg
serum insulin levels relative to the control mice (NOD mice; 3000 μg/kg/day, two weeks after a 66 day course of treatment): about 4 fold
average insulin secretion of the treated mice (NOD mice; both NOD experiments of Example 14, 3000 μg/kg daily): five times greater than the control mice
insulin secretion (STZ-treated mouse islets): increased in a dose dependent manner
